Source: US11155551B2, “Nicotinic acetylcholine receptor silent agonists” (University of Florida Research Foundation, Inc., priority 2015, dated 2021)

Key:
human α7 nAChR = biological target: T1, human α7 nAChR (Homo sapiens, UniProt P36544); test: Two-electrode voltage clamping of human α7 nAChR expressed in Xenopus oocytes (net-charge / peak current relative to 60 μM ACh); assay type: cell-based; conditions: for functional classification at α7 nAChR: 30 μM alone and with 10 μM PNU-120596, partial agonist = net charge > 1/10th ACh control; for Potentiated response: 30 μM test compound + 10 μM PNU-120596 co-application; for Potentiated response / Relative response: relative to 60 μM ACh control, mean ± SEM, N ≥ 4; for PAM-dependent currents relative to ACh: co-application with PNU-120596, meta-substituted series; for Relative response: net-charge response to 30 μM test compound alone; for PNU Response: 30 μM compound + 10 μM PNU-120596, relative to 60 μM ACh controls (n ≥ 4); for Net Charge / Peak current: 30 μM compound alone, relative to 60 μM ACh controls (n ≥ 4); for Ratio (peak current to net charge): 30 μM, normalized peak current / normalized net charge; for Estimated Rank efficacy / Estimated Rank potency: rank among six partial agonists; for Estimated Rank potency: from peak-current-to-net-charge ratio; for PAM-dependent response compared to the parent diEPP: co-application with PNU-120596
T1 construct: expressed in transfected cells; host or cells: Xenopus oocytes
Method: Electrophysiology: The panel of compounds synthesized was assayed using human α7 nAChR expressed in Xenopus oocytes and two-electrode voltage clamping. The partial agonism activity was evaluated, quantified as net-charge for 30 μM applications of compounds, measured relative to the control response to applications of 60 μM ACh. The induction of PAM-sensitive desensitization was detected as the net-charge responses when compounds were co-applied with the PAM PNU-120596 (30 μM compound+10 μM PNU-120596), measured relative to responses to 60 μM ACh applied alone. […] It is a unique property of α7 orthosteric agonist-induced currents that they vary systematically in the relationship between peak current and net charge as a function of the effective concentration applied (Papke & Papke (2002) Br. J. Pharm. 137: 49-61; Papke & Thinschmidt (1998) Neurosci. Let. 256: 163-166). This was due to the concentration-dependent desensitization of the receptors, which is likely to be associated with high levels of agonist binding site occupancy (Williams et al., (2011) J. Gen. Physiol. 137: 369-384) and is observed even when agonists are rapidly applied to small cells (Williams et al., (2012) Mol. Pharmacol. 82: 746-759) or acutely dissociated neurons (Uteshev et al., (2002) Brain Res. 948: 33-46). The control ACh concentration used for these experiments is roughly the EC80 for the net-charge responses.
By normalizing both the peak currents and net-charge measurements of the drug responses at the probe concentration of 30 μM (FIG. 3B) to those of the ACh control, the relationship between the probe concentration and the EC for each of the drugs was estimated (Papke, R. L. (2005) Life Sci.). At a concentration where the ratio of the normalized measures equaled one, the drug would be at the same effective concentration as 60 μM ACh.
Electrophysiology: New compounds were assayed for activity with the α7 nAChR expressed in Xenopus oocytes using two-electrode voltage clamping as previously described in Papke et al., (2014) J. Pharmacol. Experimental Therap. 350: 665-680, incorporated herein by reference in its entirety, and compared to responses evoked by 60 μM Ach (FIGS. 5 and 6). The compound set was assayed at a concentration of 30 μM to provide a standard comparison benchmark.
Based on earlier experience this concentration is high enough to provide an observable response and low enough to avoid possible complications such as channel block. The net-charge response for each compound application is reported relative to those for ACh control applications. Data were expressed as the mean ±S.E.M. from at least four oocytes for each experiment and were plotted by Kaleidagraph (Abelbeck Software, Reading, Pa.).

T1 sequence (P36544 23-502): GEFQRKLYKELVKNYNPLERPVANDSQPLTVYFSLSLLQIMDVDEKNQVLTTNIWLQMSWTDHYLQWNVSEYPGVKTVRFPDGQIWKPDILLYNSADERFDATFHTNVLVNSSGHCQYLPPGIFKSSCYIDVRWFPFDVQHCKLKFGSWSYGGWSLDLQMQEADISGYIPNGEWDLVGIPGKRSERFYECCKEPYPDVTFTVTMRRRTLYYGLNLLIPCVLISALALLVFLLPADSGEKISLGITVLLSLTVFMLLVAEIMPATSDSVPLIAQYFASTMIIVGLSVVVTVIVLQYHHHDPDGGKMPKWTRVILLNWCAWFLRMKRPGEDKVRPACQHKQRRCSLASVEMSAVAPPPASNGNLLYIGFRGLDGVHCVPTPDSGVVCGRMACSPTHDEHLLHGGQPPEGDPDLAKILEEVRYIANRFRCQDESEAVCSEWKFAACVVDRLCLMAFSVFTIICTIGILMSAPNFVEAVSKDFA

Row | Structure (SMILES) | functional classification at α7 nAChR (human α7 nAChR) | Potentiated response (human α7 nAChR) | Relative response (human α7 nAChR) | other results
1 | CC[N+]1(CC)CCN(c2cccc(F)c2)CC1.[I-] [Compound 2s, 1,1-diethyl-4-(3-fluorophenyl)piperazin-1-ium iodide] | no significant activity as either partial agonists or as silent agonists | 0.2 ± 0.1 | 0.061 ± 0.089 | PAM-dependent currents relative to ACh (human α7 nAChR): 0.2 fold
2 | CC[N+]1(CC)CCN(c2cccc(Cl)c2)CC1.[I-] [Compound 2f, 4-(3-chlorophenyl)-1,1-diethylpiperazin-1-ium iodide] | candidate silent agonists | 4.2 ± 1.0 | 0.020 ± 0.003 | PAM-dependent currents relative to ACh (human α7 nAChR): 4.23 fold
3 | CCN1CCN(c2cccc(Br)c2)CC1 [Compound 1p, 1-(3-bromophenyl)-4-ethylpiperazine] | modest silent agonism | 6.9±2.4 | 0.000 ± 0.003 | response relative to diEPP (human α7 nAChR; PAM co-application response): approximately 5 fold; response relative to its corresponding quaternary salt 2p (human α7 nAChR; PAM co-application response): 0.69 fold
4 | CC[N+]1(CC)CCN(c2ccc(OC)cc2)CC1.[I-] [Compound 2c, 1,1-diethyl-4-(4-methoxyphenyl)piperazin-1-ium iodide] | candidate silent agonists | 11.6 ± 0.3 | 0.063 ± 0.014 | –
5 | CC[N+]1(CC)CCN(c2ccc(C#N)cc2)CC1.[I-] [Compound 2b, 4-(4-cyanophenyl)-1,1-diethylpiperazin-1-ium iodide] | partial agonists | 68.0 ± 25.4 | 0.234 ± 0.024 | PNU Response (human α7 nAChR): 68 ± 25; Net Charge (human α7 nAChR): 0.23 ± 0.02; Peak current (human α7 nAChR): 0.10 ± 0.01; Ratio (peak current to net charge) (human α7 nAChR): 0.43; Estimated Rank efficacy (human α7 nAChR): 3; Estimated Rank potency (human α7 nAChR): 6
6 | CCN1CCN(c2ccc(Br)cc2)CC1 | – | – | – | melting point: 85 to 85.5 °C
7 | CC[N+]1(CC)CCN(c2cccc(C#N)c2)CC1.[I-] [Compound 2i, 4-(3-cyanophenyl)-1,1-diethylpiperazin-1-ium iodide] | no significant activity as either partial agonists or as silent agonists | 1.5 ± 0.7 | 0.022 ± 0.024 | PAM-dependent response compared to the parent diEPP (human α7 nAChR): equivalent
8 | CCN1CCN(c2ccc3ccccc3c2)CC1 | – | – | – | melting point: 69.1 to 70 °C
9 | CCN1CCN(c2cccc(O)c2)CC1 | – | – | – | melting point: 150.3 to 151.6 °C
10 | CCN1CCN(c2ccc(OC)cc2)CC1 | – | – | – | melting point: 56.6 to 57.8 °C
11 | CC[N+]1(CC)CCN(c2ccc(Cl)cc2)CC1.[I-] [Compound 2e, 4-(4-chlorophenyl)-1,1-diethylpiperazin-1-ium iodide] | partial agonists | 18.3 ± 6.2 | 0.234 ± 0.048 | PNU Response (human α7 nAChR): 18 ± 6; Net Charge (human α7 nAChR): 0.23 ± 0.05; Peak current (human α7 nAChR): 0.17 ± 0.02; Ratio (peak current to net charge) (human α7 nAChR): 0.71; Estimated Rank efficacy (human α7 nAChR): 5; Estimated Rank potency (human α7 nAChR): 1
12 | CC[N+]1(CC)CCN(c2ccccc2C)CC1.[I-] [Compound 2h, 1,1-diethyl-4-o-tolylpiperazin-1-ium iodide] | partial agonists | 16.4 ± 2.4 | 0.319 ± 0.066 | PNU Response (human α7 nAChR): 16 ± 2; Net Charge (human α7 nAChR): 0.32 ± 0.07; Peak current (human α7 nAChR): 0.15 ± 0.02; Ratio (peak current to net charge) (human α7 nAChR): 0.46; Estimated Rank efficacy (human α7 nAChR): 1; Estimated Rank potency (human α7 nAChR): 5
13 | CC[N+]1(CC)CCC(=Cc2ccccc2)CC1.[I-] [Compound 8, 4-benzylidene-1,1-diethylpiperidinium iodide] | – | 9.9 ± 3.1 | 0.071 ± 0.027 | PAM-dependent response compared to the parent diEPP (human α7 nAChR): enhanced PAM-dependent responses
14 | CC[N+]1(CC)CCN(c2cccc(C(F)(F)F)c2)CC1.[I-] [Compound 2o, 1,1-diethyl-4-(3-(trifluoromethyl)phenyl)piperazin-1-ium iodide] | candidate silent agonists | 3.1 ± 2.1 | 0.000 ± 0.002 | –
15 | CC[N+]1(CC)CCN(c2ccc(F)cc2)CC1.[I-] [Compound 2r, 1,1-diethyl-4-(4-fluorophenyl)piperazin-1-ium iodide] | candidate silent agonists | 22.9 ± 5.8 | 0.010 ± 0.002 | –
16 | CC[N+]1(CC)CCN(c2ccc(Br)cc2)CC1.[I-] [Compound 2q, 4-(4-bromophenyl)-1,1-diethylpiperazin-1-ium iodide] | – | 12.3 ± 3.5 | 0.270 ± 0.017 | –
17 | CC[N+]1(CC)CCN(c2ccc(OC)cc2OC)CC1.[I-] [Compound 2l, 4-(2,4-dimethoxyphenyl)-1,1-diethylpiperazin-1-ium iodide] | not a partial agonist | 1.1 ± 0.1 | 0.014 ± 0.009 | –
18 | CC[N+]1(CC)CCN(c2cccc(C(N)=O)c2)CC1.[I-] [Compound 2u, 4-(3-carbamoylphenyl)-1,1-diethylpiperazin-1-ium iodide] | candidate silent agonists | 50.7 ± 8.5 | 0.056 ± 0.022 | –
19 | CC[N+]1(CC)CCC(Nc2ccccc2)CC1.[I-] [Compound 6, 1,1-diethyl-4-(phenylamino)piperidinium iodide] | no channel activation within experimental error | 5.6 ± 2.1 | 0.002 ± 0.004 | PAM-dependent response compared to the parent diEPP (human α7 nAChR): enhanced PAM-dependent responses
20 | CC[N+]1(CC)CCN(c2ccccc2Cl)CC1.[I-] [Compound 2j, 4-(2-chlorophenyl)-1,1-diethylpiperazin-1-ium iodide] | partial agonists | 36.6 ± 6.1 | 0.367 ± 0.054 | PNU Response (human α7 nAChR): 37 ± 6; Net Charge (human α7 nAChR): 0.37 ± 0.05; Peak current (human α7 nAChR): 0.23 ± 0.03; Ratio (peak current to net charge) (human α7 nAChR): 0.63; Estimated Rank efficacy (human α7 nAChR): 2; Estimated Rank potency (human α7 nAChR): 4
21 | CCN1CCN(c2cccc(Cl)c2)CC1 [Compound 1f, 1-(3-chlorophenyl)-4-ethylpiperazine] | – | 0.1 ± 0.1 | 0.009 ± 0.008 | –
22 | CC[N+]1(CC)CCN(c2cccc(O)c2)CC1.[I-] [Compound 2k, 1,1-diethyl-4-(3-hydroxyphenyl)piperazin-1-ium iodide] | partial agonists | 31.4 ± 5.1 | 0.283 ± 0.013 | PNU Response (human α7 nAChR): 31 ± 5; Net Charge (human α7 nAChR): 0.28 ± 0.02; Peak current (human α7 nAChR): 0.19 ± 0.02; Ratio (peak current to net charge) (human α7 nAChR): 0.67; Estimated Rank efficacy (human α7 nAChR): 4; Estimated Rank potency (human α7 nAChR): 3
23 | CC[N+]1(CC)CCN(c2ccc(C(N)=O)cc2)CC1.[I-] [Compound 2t, 4-(4-carbamoylphenyl)-1,1-diethylpiperazin-1-ium iodide] | candidate silent agonists | 43.9 ± 8.5 | 0.065 ± 0.009 | –
24 | CC[N+]1(CC)CCN(c2ccc3ccccc3c2)CC1.[I-] [Compound 2m, 1,1-diethyl-4-(naphthalen-2-yl)piperazin-1-ium iodide] | partial agonist | 15.9 ± 2.3 | 0.143 ± 0.018 | PNU Response (human α7 nAChR): 16 ± 2; Net Charge (human α7 nAChR): 0.14 ± 0.02; Peak current (human α7 nAChR): 0.10 ± 0.02; Ratio (peak current to net charge) (human α7 nAChR): 0.71; Estimated Rank efficacy (human α7 nAChR): 6; Estimated Rank potency (human α7 nAChR): 1
